Data published in patent US20230151025A1, “SUBSTITUTED THIAZOLOPYRIDINES, SALTS THEREOF AND THEIR USE AS HERBICIDALLY ACTIVE SUBSTANCES” (Bayer Aktiengesellschaft, priority 2020, published 2023).

How the values were obtained:
Type in all cases: in vivo
[1] = system: Abutilon theophrasti (ABUTH); assay: Herbicidal pre-emergence action (C), 320 g/ha; details: ca. 3 weeks
Procedure, shortened: (§1)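 Pre-emergence greenhouse test: visual damage rating at about 3 weeks relative to untreated plants, 100% meaning death and 0% no effect. Compounds, as wettable powders or emulsifiable concentrates with 0.5% additive, were applied at 320 g/ha (600 l water/ha) onto soil covering seeds sown in sandy loam.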

[2] = system: Matricaria inodora (MATIN); assay: Herbicidal pre-emergence action (C), 320 g/ha; details: ca. 3 weeks
Procedure, shortened: as §1

[3] = system: Polygonum convolvulus (POLCO); assay: Herbicidal pre-emergence action (C), 320 g/ha; details: ca. 3 weeks
Procedure, shortened: as §1

Viola tricolor (VIOTR) = assay: Herbicidal pre-emergence action (C), 320 g/ha; details: ca. 3 weeks
Procedure, shortened: as §1

[4] = system: Matricaria inodora (MATIN); assay: Herbicidal post-emergence action (B), 1280 g/ha; details: rated visually after about 3 weeks vs untreated controls
Procedure, shortened: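 Post-emergence greenhouse test: weeds in sandy loam treated at the one-leaf stage, 2 to 3 weeks after sowing, with WP or EC formulations plus 0.5% additive at 600 l/ha water. Visual activity versus untreated controls after about 3 weeks (100% = dead, 0% = like control).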

[5] = system: Matricaria inodora (MATIN); assay: Herbicidal pre-emergence action (A), 1280 g/ha; details: visual grading after ca. 3 weeks vs untreated controls
Procedure, shortened: (§2)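 Pre-emergence greenhouse test: seeds sown in sandy loam pots, WP or EC formulations sprayed onto covering soil as aqueous suspension/emulsion with 0.5% additive at 600 l water/ha. Damage graded visually after ca. 3 weeks versus untreated controls, 0% = as control, 100% = plants dead.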

Lolium rigidum (LOLRI) [6] = assay: Herbicidal pre-emergence action (A), 1280 g/ha; details: visual grading after ca. 3 weeks vs untreated controls, 100% = plants have died off, 0% = as control plants
Procedure, shortened: as §2

Stellaria media (STEME) = assay: Herbicidal pre-emergence action (A), 1280 g/ha; details: visual grading after ca. 3 weeks vs untreated controls
Procedure, shortened: as §2

Setaria viridis (SETVI) = assay: Herbicidal post-emergence action (D), 320 g/ha; details: ca. 3 weeks
Procedure, shortened: (§3)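 Post-emergence greenhouse spray of WP or EC formulations plus 0.5% additive at 600 l water/ha onto single-leaf-stage plants, 2–3 weeks after sowing in sandy loam. About 3 weeks later, effect was rated visually against untreated controls as % herbicidal effect, where 0% means like control and 100% means plants dead.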

[7] = system: Echinochloa crus-galli (ECHCG); assay: Herbicidal post-emergence action (D), 320 g/ha; details: ca. 3 weeks
Procedure, shortened: as §3

[8] = system: Polygonum convolvulus (POLCO); assay: Herbicidal post-emergence action (D), 320 g/ha; details: ca. 3 weeks
Procedure, shortened: as §3

Lolium rigidum (LOLRI) [9] = assay: Herbicidal post-emergence action (D), 320 g/ha; details: ca. 3 weeks
Procedure, shortened: as §3

Avena fatua = assay: Herbicidal pre-emergence action (C), 320 g/ha; details: ca. 3 weeks
Procedure, shortened: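 Weed and crop seeds sown in sandy loam; WP or EC formulations applied pre-emergence to the soil surface as aqueous suspension/emulsion with 0.5% additive at 600 l water/ha. Greenhouse-grown under optimum conditions; damage visually scored after ca. 3 weeks versus untreated controls (0% = as control, 100% = plants dead).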

[10] = system: Alopecurus myosuroides (ALOMY); assay: Herbicidal pre-emergence action (A), 1280 g/ha; details: visual grading after ca. 3 weeks vs untreated controls, 100% = plants have died off, 0% = as control plants
Procedure, shortened: as §2

[11] = system: Kochia scoparia (KCHSC; Bassia scoparia); assay: Herbicidal pre-emergence action (A), 1280 g/ha; details: visual grading after ca. 3 weeks vs untreated controls
Procedure, shortened: as §2

[12] = system: Digitaria sanguinalis (DIGSA); assay: Herbicidal post-emergence action (D), 320 g/ha; details: ca. 3 weeks
[13] = system: Alopecurus myosuroides (ALOMY); assay: Herbicidal post-emergence action (D), 320 g/ha; details: ca. 3 weeks
Procedure, shortened: as §3

[14] = system: Amaranthus retroflexus (AMARE); assay: Herbicidal post-emergence action (D), 320 g/ha; details: ca. 3 weeks
Procedure, shortened: as §3

Veronica persica (VERPE) = assay: Herbicidal post-emergence action (D), 320 g/ha; details: ca. 3 weeks
Procedure, shortened: as §3

[15] = system: Abutilon theophrasti (ABUTH); assay: Herbicidal post-emergence action (D), 320 g/ha; details: ca. 3 weeks
Procedure, shortened: as §3

Fc1ccccc1-c1ccc2scnc2n1 [Example I-036, 5-(2-fluorophenyl)thiazolo[4,5-b]pyridine]
herbicidal effect ABUTH [1]: 90%
herbicidal effect MATIN [2]: 100%
herbicidal effect POLCO [3]: 90%
herbicidal effect VIOTR (Viola tricolor (VIOTR)): 100%
herbicidal activity MATIN [4]: 100%
herbicidal effect MATIN [5]: 90%
LOLRI, herbicidal effect in percent (%) (Lolium rigidum (LOLRI) [6]): 100%
herbicidal effect STEME (Stellaria media (STEME)): 90%
herbicidal effect SETVI (Setaria viridis (SETVI)): 80%
herbicidal effect ECHCG [7]: 80%
herbicidal effect POLCO [8]: 80%
herbicidal effect LOLRI (Lolium rigidum (LOLRI) [9]): 80%
herbicidal effect AVEFA (Avena fatua): 100%

Cc1cc2scnc2nc1-c1ccccc1 [Example I-041]
herbicidal effect MATIN [2]: 90%
herbicidal effect POLCO [3]: 90%
herbicidal activity MATIN [4]: 100%
ALOMY, herbicidal effect in percent (%) [10]: 100%
herbicidal effect KCHSC [11]: 100%
herbicidal effect MATIN [5]: 100%
LOLRI, herbicidal effect in percent (%) (Lolium rigidum (LOLRI) [6]): 100%
herbicidal effect STEME (Stellaria media (STEME)): 100%
herbicidal effect DIGSA [12]: 90%
herbicidal effect ALOMY [13]: 90%
herbicidal effect AMARE [14]: 90%
herbicidal effect VERPE (Veronica persica (VERPE)): 90%
herbicidal effect SETVI (Setaria viridis (SETVI)): 90%
herbicidal effect ABUTH [15]: 90%
herbicidal effect ECHCG [7]: 100%
herbicidal effect POLCO [8]: 90%
herbicidal effect LOLRI (Lolium rigidum (LOLRI) [9]): 80%
herbicidal effect AVEFA (Avena fatua): 90%

Cc1cc2scnc2nc1-c1ccccc1Cl [Example I-045]
herbicidal effect ABUTH [1]: 80%
herbicidal effect POLCO [3]: 80%
herbicidal effect VIOTR (Viola tricolor (VIOTR)): 80%
ALOMY, herbicidal effect in percent (%) [10]: 100%
herbicidal effect KCHSC [11]: 100%
herbicidal effect MATIN [5]: 100%
LOLRI, herbicidal effect in percent (%) (Lolium rigidum (LOLRI) [6]): 100%
herbicidal effect STEME (Stellaria media (STEME)): 100%
herbicidal effect DIGSA [12]: 90%
herbicidal effect ALOMY [13]: 90%
herbicidal effect AMARE [14]: 100%
herbicidal effect VERPE (Veronica persica (VERPE)): 90%
herbicidal effect SETVI (Setaria viridis (SETVI)): 80%
herbicidal effect ABUTH [15]: 90%
herbicidal effect ECHCG [7]: 90%
herbicidal effect POLCO [8]: 90%
herbicidal effect LOLRI (Lolium rigidum (LOLRI) [9]): 80%
herbicidal effect AVEFA (Avena fatua): 90%

CCc1cc2scnc2nc1-c1ccccc1 [Example I-051]
herbicidal effect ABUTH [1]: 90%
herbicidal effect MATIN [2]: 90%
herbicidal effect POLCO [3]: 80%
herbicidal effect VIOTR (Viola tricolor (VIOTR)): 100%
herbicidal activity MATIN [4]: 100%
ALOMY, herbicidal effect in percent (%) [10]: 100%
herbicidal effect KCHSC [11]: 90%
herbicidal effect MATIN [5]: 90%
LOLRI, herbicidal effect in percent (%) (Lolium rigidum (LOLRI) [6]): 100%
herbicidal effect STEME (Stellaria media (STEME)): 90%
herbicidal effect DIGSA [12]: 80%
herbicidal effect ALOMY [13]: 90%
herbicidal effect AMARE [14]: 90%
herbicidal effect VERPE (Veronica persica (VERPE)): 90%
herbicidal effect SETVI (Setaria viridis (SETVI)): 80%
herbicidal effect ECHCG [7]: 90%
herbicidal effect POLCO [8]: 90%
herbicidal effect LOLRI (Lolium rigidum (LOLRI) [9]): 80%
herbicidal effect AVEFA (Avena fatua): 90%
